The values that follow come from the supplement of paper PMC11368000.

Where only a bound is given, the exact number is not on record here.

The subject of one test is 20084 (donor line of iPSC-derived cardiomyocytes). Nature of the test: POD (EC10) for decrease in total cell number (cytotoxicity) vs vehicle; higher = less potent (higher point of departure). The note with it: exposure time: 90 min. As to the method:
(§1)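 Human iPSC-derived cardiomyocytes from 16 donors were exposed for 90 min at 37 °C to each PFAS at 0.1, 1, 10 and 100 µM in 0.5% DMSO, 384-well plates. Kinetic Ca2+ flux (FLIPR) and Hoechst nuclei counts were normalised to vehicle wells and fitted with a hierarchical Bayesian Hill model to give donor-specific PODs: EC05 for beat-rate increase or decrease and for decay-to-rise ratio increase (QT proxy), EC95 for peak-frequency loss (asystole), EC10 for total cell number loss. 0.03 µM is the lower bound.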
For `O=C(O)C(F)(F)C(F)(F)C(F)(F)C(F)(F)C(F)(F)C(F)(F)F` [Perfluoroheptanoic_acid], the POD vs vehicle worked out at 56.8 µM.
`NC(=O)C(F)(F)C(F)(F)C(F)(F)C(F)(F)C(F)(F)C(F)(F)C(F)(F)F` [Perfluorooctanamide] showed a POD vs vehicle of over 100 µM.
The compound `N=C(N)C(F)(F)C(F)(F)C(F)(F)C(F)(F)C(F)(F)C(F)(F)C(F)(F)F` [Perfluorooctanamidine] had a POD vs vehicle of over 100 µM.

The test system of another test is 1565 (donor line of iPSC-derived cardiomyocytes). The test is described as above. To be noted: exposure time: 90 min. As to the method: as §1
On to `OCC(F)(F)C(F)(F)C(F)(F)C(F)F` [1H,1H,5H-Perfluoropentanol], for which the POD vs vehicle was over 100 µM.
The compound `O=S(=O)(OCC(F)(F)F)C(F)(F)C(F)(F)C(F)(F)C(F)(F)F` [2,2,2-Trifluoroethyl_perfluorobutanesulfonate] showed a POD vs vehicle of over 100 µM.
Regarding `OCCC(F)(F)C(F)(F)C(F)(F)C(F)(F)F` [4:2 Fluorotelomer alcohol], the POD vs vehicle is over 100 µM.
`OCC(F)(F)C(F)(F)C(F)(F)C(F)(F)C(F)(F)C(F)(F)F` [6:1 Fluorotelomer alcohol] showed a POD vs vehicle of over 100 µM.
For `O=C([O-])C(F)(F)C(F)(F)C(F)(F)C(F)(F)C(F)(F)C(F)(F)C(F)(F)F.[NH4+]` [Ammonium_perfluorooctanoate], the POD vs vehicle is over 100 µM.
Take `OCC(F)(F)OC(F)(F)C(F)(F)OC(F)(F)C(F)(F)OC(F)(F)F` [Fluorinated_triethylene_glycol_monomethyl_ether]: the POD vs vehicle was over 100 µM.
Take `NC(=O)C(F)(F)C(F)(F)C(F)(F)F` [Heptafluorobutyramide]: the POD vs vehicle was over 100 µM.
The compound `O=C(O)C(F)(F)OC(F)(F)C(F)(F)OC(F)(F)C(F)(F)OC(F)(F)C(F)(F)C(F)(F)C(F)(F)F` [Perfluoro-3,6,9-trioxatridecanoic_acid] returned a POD vs vehicle of over 100 µM.
The same measure, in the same setting: to `O=C(O)C(F)(F)C(F)(F)C(F)(F)C(F)(F)C(F)(F)C(F)(F)F` [Perfluoroheptanoic_acid] belongs over 100 µM; to `NC(=O)C(F)(F)C(F)(F)C(F)(F)C(F)(F)C(F)(F)C(F)(F)C(F)(F)F` [Perfluorooctanamide], over 100 µM; to `N=C(N)C(F)(F)C(F)(F)C(F)(F)C(F)(F)C(F)(F)C(F)(F)C(F)(F)F` [Perfluorooctanamidine], over 100 µM.

Another test concerns 1531 (donor line of iPSC-derived cardiomyocytes). The description is as above. The note with it: exposure time: 90 min. Here is the method:
as §1
Turning to `OCC(F)(F)C(F)(F)C(F)(F)C(F)F` [1H,1H,5H-Perfluoropentanol], the POD vs vehicle is over 100 µM.
The compound `O=S(=O)(OCC(F)(F)F)C(F)(F)C(F)(F)C(F)(F)C(F)(F)F` [2,2,2-Trifluoroethyl_perfluorobutanesulfonate] registered a POD vs vehicle of over 100 µM.
Take `OCCC(F)(F)C(F)(F)C(F)(F)C(F)(F)F` [4:2 Fluorotelomer alcohol]: the POD vs vehicle is over 100 µM.
Same read-out and setting: to `OCC(F)(F)C(F)(F)C(F)(F)C(F)(F)C(F)(F)C(F)(F)F` [6:1 Fluorotelomer alcohol] belongs over 100 µM; to `O=C([O-])C(F)(F)C(F)(F)C(F)(F)C(F)(F)C(F)(F)C(F)(F)C(F)(F)F.[NH4+]` [Ammonium_perfluorooctanoate], over 100 µM; to `NC(=O)C(F)(F)C(F)(F)C(F)(F)F` [Heptafluorobutyramide], over 100 µM.
Same read-out and setting: with `O=C(O)C(F)(F)C(F)(F)C(F)(F)C(F)(F)C(=O)O` [Octafluoroadipic_acid] the figure was over 100 µM.
For the compound `O=C(O)C(F)(F)OC(F)(F)C(F)(F)OC(F)(F)C(F)(F)OC(F)(F)C(F)(F)C(F)(F)C(F)(F)F` [Perfluoro-3,6,9-trioxatridecanoic_acid], the POD vs vehicle is over 100 µM.
For the compound `O=C(O)C(F)(F)C(F)(F)C(F)(F)C(F)(F)C(F)(F)C(F)(F)F` [Perfluoroheptanoic_acid], the POD vs vehicle is over 100 µM.
Still for that read-out and setting: with `NC(=O)C(F)(F)C(F)(F)C(F)(F)C(F)(F)C(F)(F)C(F)(F)C(F)(F)F` [Perfluorooctanamide] the figure was over 100 µM.
`N=C(N)C(F)(F)C(F)(F)C(F)(F)C(F)(F)C(F)(F)C(F)(F)C(F)(F)F` [Perfluorooctanamidine] yielded a POD vs vehicle of over 100 µM.

Another test has as its system 1118 (donor line of iPSC-derived cardiomyocytes). Described as above. To be noted: exposure time: 90 min. As to the method:
as §1
In turn, `OCC(F)(F)C(F)(F)C(F)(F)C(F)F` [1H,1H,5H-Perfluoropentanol] registered a POD vs vehicle of over 100 µM.
Same read-out and setting: with `O=S(=O)(OCC(F)(F)F)C(F)(F)C(F)(F)C(F)(F)C(F)(F)F` [2,2,2-Trifluoroethyl_perfluorobutanesulfonate] the figure was over 100 µM; with `OCCC(F)(F)C(F)(F)C(F)(F)C(F)(F)F` [4:2 Fluorotelomer alcohol], over 100 µM.
Same read-out and setting: to `OCC(F)(F)C(F)(F)C(F)(F)C(F)(F)C(F)(F)C(F)(F)F` [6:1 Fluorotelomer alcohol] belongs 1.53 µM; to `O=C([O-])C(F)(F)C(F)(F)C(F)(F)C(F)(F)C(F)(F)C(F)(F)C(F)(F)F.[NH4+]` [Ammonium_perfluorooctanoate], over 100 µM; to `OCC(F)(F)OC(F)(F)C(F)(F)OC(F)(F)C(F)(F)OC(F)(F)F` [Fluorinated_triethylene_glycol_monomethyl_ether], over 100 µM.
The same measure, in the same setting: to `NC(=O)C(F)(F)C(F)(F)C(F)(F)F` [Heptafluorobutyramide] belongs over 100 µM; to `O=C(O)C(F)(F)C(F)(F)C(F)(F)C(F)(F)C(=O)O` [Octafluoroadipic_acid], over 100 µM.
In turn, `O=C(O)C(F)(F)OC(F)(F)C(F)(F)OC(F)(F)C(F)(F)OC(F)(F)C(F)(F)C(F)(F)C(F)(F)F` [Perfluoro-3,6,9-trioxatridecanoic_acid] yielded a POD vs vehicle of over 100 µM.
In the case of `O=C(O)C(F)(F)C(F)(F)C(F)(F)C(F)(F)C(F)(F)C(F)(F)F` [Perfluoroheptanoic_acid], the POD vs vehicle was over 100 µM.
As for `NC(=O)C(F)(F)C(F)(F)C(F)(F)C(F)(F)C(F)(F)C(F)(F)C(F)(F)F` [Perfluorooctanamide], the POD vs vehicle is over 100 µM.
The compound `N=C(N)C(F)(F)C(F)(F)C(F)(F)C(F)(F)C(F)(F)C(F)(F)C(F)(F)F` [Perfluorooctanamidine] had a POD vs vehicle of over 100 µM.

The next test deals with 30171 (donor line of iPSC-derived cardiomyocytes). The description is as above. To be noted: exposure time: 90 min. Here is the method: as §1
`OCC(F)(F)C(F)(F)C(F)(F)C(F)F` [1H,1H,5H-Perfluoropentanol]: the POD vs vehicle was over 100 µM.
Turning to `O=S(=O)(OCC(F)(F)F)C(F)(F)C(F)(F)C(F)(F)C(F)(F)F` [2,2,2-Trifluoroethyl_perfluorobutanesulfonate], the POD vs vehicle is over 100 µM.
In the case of `OCC(F)(F)C(F)(F)C(F)(F)C(F)(F)C(F)(F)C(F)(F)F` [6:1 Fluorotelomer alcohol], the POD vs vehicle is over 100 µM.
Take `O=C([O-])C(F)(F)C(F)(F)C(F)(F)C(F)(F)C(F)(F)C(F)(F)C(F)(F)F.[NH4+]` [Ammonium_perfluorooctanoate]: the POD vs vehicle was over 100 µM.
The same measure, in the same setting: to `OCC(F)(F)OC(F)(F)C(F)(F)OC(F)(F)C(F)(F)OC(F)(F)F` [Fluorinated_triethylene_glycol_monomethyl_ether] belongs over 100 µM; to `NC(=O)C(F)(F)C(F)(F)C(F)(F)F` [Heptafluorobutyramide], over 100 µM; to `O=C(O)C(F)(F)C(F)(F)C(F)(F)C(F)(F)C(=O)O` [Octafluoroadipic_acid], over 100 µM.
Compound `O=C(O)C(F)(F)OC(F)(F)C(F)(F)OC(F)(F)C(F)(F)OC(F)(F)C(F)(F)C(F)(F)C(F)(F)F` [Perfluoro-3,6,9-trioxatridecanoic_acid] had a POD vs vehicle of 59.5 µM.
Compound `O=C(O)C(F)(F)C(F)(F)C(F)(F)C(F)(F)C(F)(F)C(F)(F)F` [Perfluoroheptanoic_acid] displayed a POD vs vehicle of over 100 µM.
`NC(=O)C(F)(F)C(F)(F)C(F)(F)C(F)(F)C(F)(F)C(F)(F)C(F)(F)F` [Perfluorooctanamide] returned a POD vs vehicle of over 100 µM.
`N=C(N)C(F)(F)C(F)(F)C(F)(F)C(F)(F)C(F)(F)C(F)(F)C(F)(F)F` [Perfluorooctanamidine]: the POD vs vehicle was over 100 µM.

A further test deals with 1309 (donor line of iPSC-derived cardiomyocytes). Described as above. The note with it: exposure time: 90 min. Here is the method:
as §1
Compound `OCC(F)(F)C(F)(F)C(F)(F)C(F)F` [1H,1H,5H-Perfluoropentanol] returned a POD vs vehicle of over 100 µM.
On the same count and under the same terms, to `O=S(=O)(OCC(F)(F)F)C(F)(F)C(F)(F)C(F)(F)C(F)(F)F` [2,2,2-Trifluoroethyl_perfluorobutanesulfonate] belongs over 100 µM.
